These are literature values, as cited in patent US8911790B2, “Solid composition containing a hypothiocyanite salt” (Alaxia SAS, priority 2011, dated 2014).

For this data set the following is noted: hypothiocyanite ion, instability of the species.

Consider `N#CSO` [hypothiocyanite ion, hypothiocyanite], for which the half-life result is listed as “less than 24 hours”.
